Measured values taken from PubChem BioAssay AID1465 (SRMLSC, 2008).
pEC50: −log10 of the molar value.

System: S. cerevisiae Yfh1-off respiration, WST-1 reduction, 72 h
Experiment: enhancers of respiration in Yfh1-depleted yeast, dose response, Friedreich's ataxia, plus single-dose screen (AID 1465);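 further: activators that raise dye reduction in frataxin-depleted yeast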

| SMILES | pEC50 |
| --- | --- |
| CCC(=O)NC(c1cccs1)c1cc(Cl)c2cccnc2c1O (stereo not given) | 4.18 |
| Oc1ccc(CN2CCC(Cc3ccccc3)CC2)c2cccnc12 | 4.01 |
| CCC(=O)NC(c1ccc(OC)cc1)c1cc(Cl)c2cccnc2c1O (stereo not given) | 4.42 |
| CCN1/C(=C\C=C(C(C)=O)C(C)=O)Sc2ccccc21 | 4.06 |
| CCCCCC(=O)NNC(=S)NC(C)=O | 4.46 |
| Cc1c(N/N=C(\C#N)C(=O)c2ccccc2)c(=O)n(-c2ccccc2)n1C | 4.28 |
| O=c1cc(-c2ccccc2)[nH]n1-c1nc2ccccc2s1 | 4.31 |
| CC(=O)NC(c1ccc(C)cc1)c1cc([N+](=O)[O-])c2cccnc2c1O (stereo not given) | 4.60 |
| COC(=O)c1ccc(=O)c2nc3/c(=C/O)c(O)cc(=O)c3[nH]c12 | 4.66 |
| CCCC(=O)NC(c1ccco1)c1cc([N+](=O)[O-])c2cccnc2c1O (stereo not given) | 4.26 |
| CC1=CC(=Cc2sc3ccccc3[n+]2C)C=C(C)O1 | 4.03 |
| O=C1C=C(NCc2ccccc2)c2ccccc2C1=O | 4.44 |
| CCC(C(=O)O)N1C(=O)/C(=C/c2cccn2C)SC1=S (stereo not given) | 4.01 |
| O=[N+]([O-])c1cccc(/C=N/Nc2nc(NCc3ccccc3)nc(N3CCOCC3)n2)c1O | 4.29 |
| CCCCC(=O)NC(c1ccccc1OC)c1ccc2cccnc2c1O (stereo not given) | 4.44 |
| Cc1cc(C(=O)N/N=C/c2ccc(O)c(O)c2O)c(C)n1-c1ccccc1 | 4.34 |
| COc1ccccc1N1CCN(Cc2ccc(O)c3ncccc23)CC1 | 4.37 |
| CCCCC(=O)NC(c1cccs1)c1cc(Cl)c2cccnc2c1O (stereo not given) | 5.07 |
| CCOC(=O)c1c(C)oc2c1c(CN1CCN(CCO)CC1)c(O)c1ccccc12 | 4.07 |
| Cn1cccc1/C=C1\SC(=S)N(CC(=O)O)C1=O | 4.04 |

| SMILES | pEC50 |
| --- | --- |
| COc1ccccc1C(=O)NNC1=C(C(=O)C(F)(F)F)CCC1 | 4.60 |
| CCN1CCS/C1=C\C=C\C1=[N+](CC)CCS1 | 4.27 |
| O=C1NC(=O)C(=Cc2ccc(N3CCOCC3)o2)C(=O)N1 | 4.01 |
| CCCC(=O)NC(c1cccs1)c1cc([N+](=O)[O-])c2cccnc2c1O (stereo not given) | 4.68 |
| Cc1ccc(NS(=O)(=O)c2cc([N+](=O)[O-])ccc2NNC(=S)Nc2cccc(Cl)c2)c(C)c1 | 4.51 |
| COc1ccc(Cn2c(O)c(/C=N/NC(=O)c3cccnc3)c3ccccc3c2=O)cc1 | 4.12 |
| O=C(COc1ccc(Cl)cc1Cl)NNC(=S)Nc1ccc(F)cc1 | 4.08 |
| CC1CC(=O)c2c(cc3c(-c4c(O)cc(O)c5c(O)c6c(cc45)OC(C)CC6=O)c(O)cc(O)c3c2O)O1 (stereo not given) | 4.12 |
| CC1=C(C)C(=O)C(N2CCOCC2)=CC1=O | 4.85 |
| O=C1C(Cl)=C(Nc2ccccc2)C(=O)c2ccccc21 | 4.17 |
| CCC(=O)NC(c1cccs1)c1cc([N+](=O)[O-])c2cccnc2c1O (stereo not given) | 4.46 |
| Cc1c(N/N=C(\C#N)C(=O)c2ccc(Cl)cc2)c(=O)n(-c2ccccc2)n1C | 4.67 |
| O=C1c2ccccc2NC(c2ccc(-c3cccc(Cl)c3)o2)N1O (stereo not given) | 4.10 |
| Cc1oc2c(c1C(=O)c1ccccc1)C(=O)C(=O)c1ccccc1-2 | 4.45 |
| COc1cc(/C=N/NC(=O)c2cncc(Br)c2)cc([N+](=O)[O-])c1O | 4.24 |
| c1ccc(-c2ccc(SCc3cccnc3)nn2)nc1 | 4.37 |
| Cc1ccccc1C(=O)/C(C#N)=N/Nc1c(C)n(C)n(-c2ccccc2)c1=O | 4.22 |
| CCOC(=O)C1=C(Cc2ccc(F)cc2)C(=O)c2ccccc2C1=O | 4.44 |
| O=C(O)c1cccc2nc3ccccc3nc12 | 4.32 |
| CC1=C(C)C(=O)C(CCCCC#CCCCC#CCO)=C(C)C1=O | 4.02 |

| SMILES | pEC50 |
| --- | --- |
| CC[n+]1c(C=C2C=C(C)OC(C)=C2)sc2ccccc21 | 4.08 |
| O=C(CCc1ccccc1)NC(c1cccs1)c1cc(Cl)c2cccnc2c1O (stereo not given) | 5.13 |
| CN1/C(=C\C=C2C(=O)NC(=O)NC2=O)C(C)(C)c2ccccc21 | 4.01 |
| COc1cc([N+](=O)[O-])cc(/C=N/NC(=O)c2cc(-c3ccccc3)nc3ccccc23)c1O | 4.45 |
| COc1ccc(C2=NN(c3nc4ccccc4s3)C(=O)C2)cc1 | 4.23 |
| O=C(NNC1=C(C(=O)C(F)(F)F)CCC1)c1ccc(Br)cc1 | 4.22 |
| O=C(O)c1cccc(NC(=S)N/N=C/c2ccccn2)c1 | 4.11 |
| CC1=CC(=O)c2ccccc2C1=O | 4.34 |
| CCN1CCS/C1=C/C=C/C1=[N+](CC)CCS1 | 4.25 |
| NC(=S)n1[nH]c(-c2ccc([N+](=O)[O-])cc2)c(N=Nc2cccc([N+](=O)[O-])c2)c1=O | 4.36 |
| CCC(=O)NC(c1ccc(C)cc1)c1cc([N+](=O)[O-])c2cccnc2c1O (stereo not given) | 4.61 |
| CCOC(=O)/C(C#N)=C\C=C1C=CN(C)C=C1 | 4.02 |
| Cc1coc2c1C(=O)C(=O)c1c-2ccc2c(C)cccc12 | 4.10 |
| CCC(=O)NC(c1ccc(OC)c(OC)c1)c1cc(Cl)c2cccnc2c1O (stereo not given) | 4.53 |
| CC(=O)NC(c1cccs1)c1cc([N+](=O)[O-])c2cccnc2c1O (stereo not given) | 4.60 |
| CCN(CC)c1ccc(/C=N/NC(=O)c2cccc(S(=O)(=O)Nc3ccccc3OC)c2)c(O)c1 | 4.12 |
| O=C(C1=C(c2ccccc2)C(=O)c2ccccc2C1=O)c1ccccc1 | 4.45 |
| O=[N+]([O-])c1ccc(Sc2cccc[n+]2[O-])c2nonc12 | 4.77 |
| O=C(N/N=C/c1c(O)n(Cc2ccccc2)c(=O)c2ccccc12)c1cccnc1 | 4.14 |
| O=C(Cn1nc(Cl)nc1Cl)c1cc2ccccc2oc1=O | 4.14 |
